According to patent publication US9593140B2, “Antibacterial tylosin derivatives and methods for their preparation” (Bayer Intellectual Property GmbH, priority 2011, dated 2017):
In brackets after ≈: the same amount, converted by molar mass.

Experiments:
Type in all cases: cell-based
[1] = tested on: Mannhemia hemolytica KB345; experiment: Paper disc assay, M. hemolytica KB345 (Tilmicosin-sensitivity strain); settings: for zone of inhibition at 1 mg/disc / zone of inhibition at 3 mg/disc / zone of inhibition at 10 mg/disc / zone of inhibition at 30 mg/disc / zone of inhibition at 100 mg/disc: 24 h; for zone of inhibition at 1 mg/disc: 1 mg/6 mm disk
Protocol: (§1) (1) Antibacterial Activities Against Mannheimia and Pasteurella were Determined by the Following Steps:
(§2) 1) M. hemolytica KB345 (Tilmicosin-sensitivity strain) and M. hemolytica KB346 (Tilmicosin-low sensitivity strain) were provided. KB 345 strain stored at −80° C. was seeded to BHIB agar medium (10 mL) by using Microbank beads (Pro-Lab) and platinum nail. After statically incubating the KB 345 strain for 24 hours at 37° C., it was seeded to maintaining slant BHIB agar medium (7 mL) by using platinum loop, further statically incubated for 24 hours at 37° C. to obtain slant. One platinum loop of KB 345 strain stored at the slant was inoculated into a large test tube charged with BHIB liquid medium (10 mL) and then incubated for 24 hours at 37° C. with shaking.
(§3) 2) A paper disc (ADVANTEC, Φ:6 mm) was impregnated with a solution of test compound and dried under reduced pressure.
(§4) 3) To a melted BHIB agar medium was inoculated 1% of the broth obtained from step 1) above to prepare a test plate. After the medium set, the paper disc prepared in step 2) above was put on the plate and it was incubated at 37° C.
(§5) 4) After one day, the inhibition zone diameter and clarity (A to E) were determined.

[2] = tested on: Mannhemia hemolytica KB346; experiment: Paper disc assay, M. hemolytica KB346 (Tilmicosin-low sensitivity strain)
Protocol: as §1, §2, §3, §4, §5
For KB346 strain, the same procedures were repeated.

[3] = tested on: Micrococcus luteus ATCC9341; experiment: Paper disc assay, Micrococcus luteus (l)
Protocol: (§6) (2) Antibacterial activities against other bacteria were determined with Micrococcus luteus ATCC9341 (1), Bacillus subtilis […] (s), Escherichia coli NIHJ (c), Xanthomonas campestris KB88 (X), Mucor racemosus IFO 4581 (Mu) and Candida albicans ATCC 64548 (Ca).
(§7) Bacillus subtilis ATCC6633 was incubated in Davis synthetic medium and then the seed broth was combined with the medium in the ratio of 1:99 to obtain a test plate. Micrococcus luteus ATCC9341, Escherichia coli NIHJ and Xanthomonas campestris KB88 were respectively incubated in Nutrient agar medium and inoculated at 0.2%, 0.5% and 1.0%. Mucor racemosus IFO 4581 and Candida albicans ATCC 64548 were respectively incubated in GY agar medium and then inoculated at 0.3% and 0.2%.
(§8) A paper disc (ADVANTEC, Φ:6 mm) was impregnated with a solution of test compound and dried under reduced pressure. The paper disc was put on the test plate and it was incubated for 24 hours at 37° C. After incubation, the inhibition zone diameter and clarity (A to E) were determined.

[4] = tested on: Xanthomonas campestris KB88; experiment: Paper disc assay, Xanthomonas campestris (X)
Protocol: as §6, §7, §8

[5] = tested on: Bacillus subtilis ATCC6633; experiment: Paper disc assay, Bacillus subtilis (S)
Protocol: as §6, §7, §8

[6] = tested on: A. pleuropneumoniae, 6 isolates; experiment: Minimal inhibitory concentrations, swine pathogen isolates
Protocol: (§9) The antibacterial activity by the compounds of the present invention may be measured using a number of assays available in the art. […] Minimal inhibitory concentrations (MICs) were determined against the most prevalent pathogens in cattle (Mannheimia Haemolytica, 3 isolates) and swine (A. pleuropneumoniae, 6 isolates).The results are summarized in Table 7.

[7] = tested on: Mannheimia Haemolytica, 3 isolates; experiment: Minimal inhibitory concentrations, cattle pathogen isolates; settings: Mannheimia haemolytica
Protocol: as §9

| Structure (SMILES) | Inhibition zone (mm) ([3]; 0.1 mg/6 mm disc) | Inhibition zone (mm) ([3]; 1 mg/6 mm disc) | Inhibition zone (mm) ([3]; 10 mg/6 mm disc) | zone of inhibition at 3 mg/disc ([1]; Table 2, 3 mg/6 mm disk) [mm] | zone of inhibition at 10 mg/disc ([1]; Table 2, 10 mg/6 mm disk) [mm] | zone of inhibition at 30 mg/disc ([1]; Table 2, 30 mg/6 mm disk) [mm] | zone of inhibition at 100 mg/disc ([1]; Table 2, 100 mg/6 mm disk) [mm] | Inhibition zone (mm) ([4]; 0.1 mg/6 mm disc) | Inhibition zone (mm) ([4]; 1 mg/6 mm disc) | Inhibition zone (mm) ([4]; 10 mg/6 mm disc) | Inhibition zone (mm) ([5]; 0.1 mg/6 mm disc) | Inhibition zone (mm) ([5]; 1 mg/6 mm disc) | Inhibition zone (mm) ([5]; 10 mg/6 mm disc) | also measured |
| --- | --- | --- | --- | --- | --- | --- | --- | --- | --- | --- | --- | --- | --- | --- |
| CC[C@H]1OC(=O)C[C@@H](O)[C@H](C)[C@@H](O[C@@H]2O[C@H](C)[C@@H](O)[C@H](N(C)C)[C@H]2O)[C@@H](CC=O)C[C@@H](C)C(=O)/C=C/C(C)=C/[C@@H]1CO[C@@H]1O[C@H](C)[C@@H](O)[C@@H](OC)[C@H]1OC [YT6, Desmycosin] | – | – | – | – | – | – | – | – | – | – | – | – | – | Inhibition zone (mm) ([1]; Table 2, 30 mg/6 mm disk): 10.5 mm; Inhibition zone (mm) ([2]; Table 3, 3 mg/6 mm disk): 8.5 mm; Inhibition zone (mm) ([2]; Table 3, 10 mg/6 mm disk): 13.5 mm; Inhibition zone (mm) ([2]; Table 3, 30 mg/6 mm disk): 17.5 mm; Inhibition zone (mm) ([2]; Table 3, 100 mg/6 mm disk): 21.0 mm |
| CC[C@H]1OC(=O)C[C@@H](O)[C@H](C)[C@@H](O[C@@H]2O[C@H](C)[C@@H](O)[C@H](N(C)C)[C@H]2O)[C@@H](CCCl)C[C@@H](C)C(=O)/C=C/C(C)=C/[C@@H]1CO[C@@H]1O[C@H](C)[C@@H](O)[C@@H](OC)[C@H]1OC [YT8, 20-chloro-20-deoxodesmycosin] | – | – | – | – | – | – | – | – | – | – | – | – | – | Inhibition zone (mm) ([1]; Table 2, 10 mg/6 mm disk): 12.5 mm; Inhibition zone (mm) ([1]; Table 2, 30 mg/6 mm disk): 18.0 mm; Inhibition zone (mm) ([1]; Table 2, 100 mg/6 mm disk): 20.0 mm; Inhibition zone (mm) ([2]; Table 3, 30 mg/6 mm disk): 11.0 mm; Inhibition zone (mm) ([2]; Table 3, 100 mg/6 mm disk): 14.5 mm |
| CCC1OC(=O)CC(O)C(C)C(OC2OC(C)C(O)C(N(C)C)C2O)C(CCN=[N+]=[N-])CC(C)C(=O)C=CC(C)=CC1COC1OC(C)C(O)C(OC)C1OC (stereo not drawn) [YT11, 20-azido-20-deoxodesmycosin] | – | – | – | – | – | – | – | – | – | – | – | – | – | Inhibition zone (mm) ([1]; Table 2, 3 mg/6 mm disk): 10.0 mm; Inhibition zone (mm) ([1]; Table 2, 10 mg/6 mm disk): 13.0 mm; Inhibition zone (mm) ([1]; Table 2, 30 mg/6 mm disk): 16.0 mm; Inhibition zone (mm) ([1]; Table 2, 100 mg/6 mm disk): 18.0 mm; Inhibition zone (mm) ([2]; Table 3, 100 mg/6 mm disk): 11.0 mm |
| CC[C@H]1OC(=O)C[C@@H](O)[C@H](C)[C@@H](O[C@@H]2OC(C)[C@@H](O)C(N(C)C)C2O)[C@@H](CCn2cc(-c3ccccn3)nn2)C[C@@H](C)C(=O)/C=C/C(C)=C/[C@@H]1CO[C@@H]1OC(C)[C@@H](O)C(OC)C1OC (stereo partly drawn) [YT12, 20-(4-(pyridine-2-yl)-1H-1,2,3-triazol-1-yl)-20-deoxodesmycosin] | 12 | 18.5 | 25 | 13 | 17 | 19 | 22 | 7 | 12.5 | 27 | 7 | 12.5 | 14 | zone of inhibition at 1 mg/disc ([1]; Table 2): 9 mm |
| CC[C@H]1OC(=O)C[C@@H](O)[C@H](C)[C@@H](O[C@@H]2OC(C)[C@@H](O)C(N(C)C)C2O)[C@@H](CCn2cc(-c3ccccc3)nn2)C[C@@H](C)C(=O)/C=C/C(C)=C/[C@@H]1CO[C@@H]1OC(C)[C@@H](O)C(OC)C1OC (stereo partly drawn) [YT13, 20-(4-phenyl-1H-1,2,3-triazol-1-yl)-20-deoxodesmycosin] | 15 | 21.5 | 27.5 | 15 | 16 | 18 | 21 | 8 | 17 | 23.5 | 9.5 | 12 | 15.5 | zone of inhibition at 1 mg/disc ([1]; Table 2): 11 mm |
| CC[C@H]1OC(=O)C[C@@H](O)[C@H](C)[C@@H](O[C@@H]2OC(C)[C@@H](O)C(N(C)C)C2O)[C@@H](CCn2cc(CCCCCl)nn2)C[C@@H](C)C(=O)/C=C/C(C)=C/[C@@H]1CO[C@@H]1OC(C)[C@@H](O)C(OC)C1OC (stereo partly drawn) [YT19, 20-(4-(4-chlorobutyl)-1H-1,2,3-triazol-1-yl)-20-deoxodesmycosin] | 13 | 19 | 26 | 14 | 16 | 18 | 21 | 7 | 14.5 | 23 | 7 | 10.5 | 15 | – |
| CC[C@H]1OC(=O)C[C@@H](O)[C@H](C)[C@@H](O[C@@H]2OC(C)[C@@H](O)C(N(C)C)C2O)[C@@H](CCn2cc(-c3ccc(N(C)C)cc3)nn2)C[C@@H](C)C(=O)/C=C/C(C)=C/[C@@H]1CO[C@@H]1OC(C)[C@@H](O)C(OC)C1OC (stereo partly drawn) [YT29, 20-(4-(4-dimethylaminophenyl)-1H-1,2,3-triazol-1-yl)-20-deoxodesmycosin] | 11 | 19.5 | 25.5 | 13.5 | 16 | 17.5 | 20 | 7 | 15 | 24 | 7 | 10 | 15 | – |
| CC[C@H]1OC(=O)C[C@@H](O)[C@H](C)[C@@H](O[C@@H]2OC(C)[C@@H](O)C(N(C)C)C2O)[C@@H](CCn2cc(CO)nn2)C[C@@H](C)C(=O)/C=C/C(C)=C/[C@@H]1CO[C@@H]1OC(C)[C@@H](O)C(OC)C1OC (stereo partly drawn) [YT37, 20-(4-(methanol)-1H-1,2,3-triazol-1-yl)-20-deoxodesmycosin] | – | – | – | – | – | 9 | 12.5 | – | – | – | – | – | – | – |
| CC[C@H]1OC(=O)C[C@@H](O)[C@H](C)[C@@H](O[C@@H]2O[C@H](C)C(O)C(N(C)C)C2O)[C@@H](CC=O)C[C@@H](C)C(=O)/C=C/C(C)=C/[C@@H]1Cn1cc(-c2ccc(-c3ccccc3)cc2)nn1 (stereo partly drawn) [YT104, 23-(4-biphenyl-1H-1,2,3-triazol-1-yl)-23-Deoxy-5-O-mycaminosyltylonolide] | – | – | – | – | – | – | – | – | – | – | – | – | – | MIC ([6]; Actinobacillus pleuropneumoniae, pleuropneumoniae isolate 1): > 16 µg/mL; MICs ([6]; pleuropneumoniae isolate 2): >16 µg/mL; MICs ([6]; pleuropneumoniae isolate 3): >16 µg/mL; MICs ([6]; pleuropneumoniae isolate 4): >16 µg/mL; MICs ([6]; pleuropneumoniae isolate 5): >16 µg/mL; MICs ([6]; pleuropneumoniae isolate 6): >16 µg/mL; MIC ([7]; M. haemolytica isolate 1): 8 µg/mL (≈ 9.99 µM); MIC ([7]; M. haemolytica isolate 2): 4 µg/mL (≈ 4.99 µM); MIC ([7]; M. haemolytica isolate 3): 8 µg/mL (≈ 9.99 µM) |
| CC[C@H]1OC(=O)C[C@@H](O)[C@H](C)[C@@H](O[C@@H]2O[C@H](C)[C@@H](O)[C@H](N(C)C)[C@H]2O)[C@@H](CC=O)C[C@@H](C)C(=O)/C=C/C(C)=C/[C@@H]1CO [YT106, 5-O-mycaminosyltylonolide] | – | – | – | – | – | – | – | – | – | – | – | – | – | Inhibition zone (mm) ([1]; Table 4, 10 mg/6 mm disk): 8.5 mm; Inhibition zone (mm) ([1]; Table 4, 30 mg/6 mm disk): 12.5 mm; Inhibition zone (mm) ([1]; Table 4, 100 mg/6 mm disk): 15.0 mm; Inhibition zone (mm) ([2]; Table 5, 10 mg/6 mm disk): 9.0 mm; Inhibition zone (mm) ([2]; Table 5, 30 mg/6 mm disk): 13.0 mm; Inhibition zone (mm) ([2]; Table 5, 100 mg/6 mm disk): 17.0 mm |
| CCC1OC(=O)CC(O)C(C)C(OC2OC(C)C(O)C(N(C)C)C2O)C(CC=O)CC(C)C(=O)C=CC(C)=CC1CN=[N+]=[N-] (stereo not drawn) [YT107, 23-azido-23-deoxo-5-O-mycaminosyltylonolide] | – | – | – | – | – | – | – | – | – | – | – | – | – | Inhibition zone (mm) ([1]; Table 4, 3 mg/6 mm disk): 12.0 mm; Inhibition zone (mm) ([1]; Table 4, 10 mg/6 mm disk): 16.0 mm; Inhibition zone (mm) ([1]; Table 4, 30 mg/6 mm disk): 18.0 mm; Inhibition zone (mm) ([1]; Table 4, 100 mg/6 mm disk): 21.5 mm; Inhibition zone (mm) ([2]; Table 5, 30 mg/6 mm disk): 10.5 mm; Inhibition zone (mm) ([2]; Table 5, 100 mg/6 mm disk): 15.0 mm |
| CC[C@H]1OC(=O)C[C@@H](O)[C@H](C)[C@@H](O[C@@H]2O[C@H](C)[C@@H](O)[C@H](N(C)C)[C@H]2O)[C@@H](CCn2cc(-c3ccccc3)nn2)C[C@@H](C)C(=O)/C=C/C(C)=C/[C@@H]1CN=[N+]=[N-] [YT114, 20-(4-phenyl-1H-1,2,3-triazol-1-yl)-20-deoxo-23-azido-23-deoxy-5-O-mycaminosyltylonolide] | – | – | – | – | – | – | – | – | – | – | – | – | – | Inhibition zone (mm) ([1]; Table 4, 3 mg/6 mm disk): 11.5 mm; Inhibition zone (mm) ([1]; Table 4, 10 mg/6 mm disk): 17.5 mm; Inhibition zone (mm) ([1]; Table 4, 30 mg/6 mm disk): 21.0 mm; Inhibition zone (mm) ([1]; Table 4, 100 mg/6 mm disk): 21.0 mm |
